Source: patent US10183021B2, “sGC stimulators” (Ironwood Pharmaceuticals, Inc., priority 2013, dated 2019)
Values belong to the compound of their own block, whether it stands above or below them.

Experiments:
obese mice = details: cited from earlier work
[1] = test system: lambs with acute pulmonary hypertension; details: inhaled microparticles, awake lambs, U-46619-induced pulmonary hypertension; cited from earlier work
patients with BMD = details: single oral dose of 20 mg; cited from earlier work
[2] = test system: Guinea pig tracheal smooth muscle; test: Electrical field stimulated guinea pig tracheal smooth muscle contraction; details: inhibition of EFS-induced guinea pig tracheal smooth muscle contraction; 95% CI 0.78-0.94
From the text: It is possible to assess the bronchodilating effects of sGC stimulators by using the system described below. This system allows us to determine potency, efficacy and duration of action of several sGC stimulators, as well as to assess potential side effects such as blood pressure, or heart rate changes.
Animals: Guinea pig, Dunkin Hartley, male, Full barrier-bred and certified free of specific micro-organisms on receipt 525-609 g on the experimental day, Harlan UK Ltd. Guinea pigs are housed in a group of 4 in solid-bottomed cages with Gold Flake bedding in a controlled environment (airflow, temperature and humidity). Food (FD1, Special Diet Services) and water are provided ad libitum.
On each experimental day, a guinea pig is killed by exposure to a rising concentration of CO2 and the trachea removed. […] Tissues are washed with Kreb's buffer and stimulated using the previously determined sub-maximal voltage for 1 hour to establish a stable baseline contraction prior to assessment of compound activity.
A cumulative dose response curve (DRC) to each test substance is then performed and changes in smooth muscle contraction measured. The effect of each test substance in each experiment is expressed as a percentage inhibition of the baseline contraction, normalized to the relevant vehicle controls. […]

Sprague-Dawley rats = test: Blood pressure change in Sprague-Dawley rats (Example 4); assay type: in vivo, rat; details: conscious male Sprague-Dawley rats, PO, 10 mg/kg
Procedure: Male rats (250-350 g body weight, supplied by Harlan Laboratories) were anesthetized with ketamine/xylazine and a heparinized saline fluid filled catheter implanted into the right femoral artery. The catheter was exteriorized between the scapula, capped, and the animal allowed to recover for at least 7 days post surgery prior to any compound testing. Prior to testing animals were maintained on normal diet, with free access to drinking water, under a 12 hour light-dark cycle.
On the day of experimentation, under inhaled isoflurane anesthesia, the catheter was uncapped and connected to a tether (Instech Labs) and pressure transducer (Harvard Apparatus). Blood pressure and heart rate were subsequently captured and analyzed with a dedicated data capture system (PowerLab, ADInstruments). Data sampling rates were set at 1 cycle per second. Once connected, each rat was allowed to recover from anesthesia and baseline blood pressure and heart rate levels were established in these conscious, freely-moving animals. Once baseline was established either vehicle (0.5% methylcellulose or 100% PEG400) or test article was administered orally (PO, 10 mg/kg) and the effects on blood pressure and heart rate monitored for up to 24 hours.
Data are reported as hourly averages and changes in blood pressure are calculated from subtracting individual baseline on an hourly basis.

[3] = molecular target: T1, soluble guanylate cyclase (sGC) (Homo sapiens (Human), UniProt Q02108+Q02153); test: sGC-HEK-cGMP assay with SNP incubation, LC/MS detection (Example 2A); assay type: cell-based; details: HEK293 cells, 10 μM SNP, LC/MS detection; for Emax: 100% = BAY 41-2272 at 10 μM, read-out: HEK assay Emax - unconstrained (%); for EC50: top of curve not fitted to 100%, read-out: HEK assay EC50 - unconstrained
How it was run: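 HEK293 cells with endogenous sGC were pretreated 15 min at 37 °C with 0.5 mM IBMX, then exposed 10 min at 37 °C to compound (added from 0.0001–30 μM solutions) plus SNP (from 10 μM solution). After 0.1 M HCl lysis, cGMP was quantified by LC/MS against a standard curve.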

[4] = molecular target: T1, soluble guanylate cyclase (sGC); test: sGC-HEK-cGMP assay with SNP incubation, HTRF detection (Example 2B); assay type: cell-based; details: HEK293 cells, 10 μM SNP; for Emax: 100% = BAY 41-2272 at 10 μM + 100 μM SNP, read-out: HEK assay Emax - unconstrained (%); for EC50: read-out: HEK assay EC50 - unconstrained
Procedure: Human embryonic kidney cells (HEK293), endogenously expressing soluble guanylate cyclase (sGC), were used to evaluate the activity of test compounds. Compounds stimulating the sGC enzyme should cause an increase in the intracellular concentration of cGMP. HEK 293 cells were seeded in Dulbecco's Modification of Eagle's Medium supplemented with fetal bovine serum (10% final) and L-glutamine (2 mM final) in a 200 μL volume at a density of 1×10^5 cells/well in a poly-D-lysine coated 96 well flat bottom plate and grown overnight at 37° C. Medium was aspirated and cells were washed with 1× Hank's Buffered Saline Salt Solution (200 μL). Cells were then incubated for 15 minutes at 37° C. with 200 μL of a 0.5 mM 3-isobutyl-1-methylxanthine (IBMX) solution. Test article and sodium nitroprusside solutions were then added to the assay mixture (2 μL each) and the resulting mixture incubated at 37° C. for 10 minutes. After the 10 minute incubation, the assay mixture was aspirated and 0.1M HCl (200 μL) was added to the cells. The plate was incubated at 4° C. for 30 minutes in the 0.1M HCl to stop the reaction and lyse the cells. The plates were then centrifuged at 1,200 g for 5 minutes at room temperature. GMP levels were determined using a cGMP HTRF assay (Cisbio Product #62GM2PEC). For each sample, 5 uL of HEK assay supernatant was diluted 1:5 in HTRF kit assay diluent and transferred to a well of the assay plate, and the HTRF assay was performed according to the HTRF kit manufacturer's instructions. Sample calculations were performed using high and low controls, where high control was supernatant from HEK assay performed in the presence of 10 uM Bay 41-2272+100 uM SNP, and the low control was the supernatant from the HEK assay performed in the presence of vehicle. A cGMP standard solution was prepared in 0.1 M HCl and diluted in order to perform a cGMP standard curve using the HTRF assay. Using Mean Ratio data from the HTRF assay, sample date were normalized according to the equation: 100*(Sample−Low Control)/(High Control−Low Control). Data were fit to a 3-parameter log agonist dose response (Top (% EMax), Bottom, log EC50) using Graphpad (Prism Software). Data in Table 4 was obtained using this modified assay procedure. (x μM concentration for test article solution and 10 μM concentration for SNP solution; wherein x is one of the following concentrations: 30 μM, 10 μM, 3 μM, 1 μM, 0.3 μM, 0.1 μM, 0.03 μM, 0.01 μM, 0.003 μM, 0.001 μM, 0.0003 μM and 0.01 nM.

T1 sequence (Q02153 whole entry): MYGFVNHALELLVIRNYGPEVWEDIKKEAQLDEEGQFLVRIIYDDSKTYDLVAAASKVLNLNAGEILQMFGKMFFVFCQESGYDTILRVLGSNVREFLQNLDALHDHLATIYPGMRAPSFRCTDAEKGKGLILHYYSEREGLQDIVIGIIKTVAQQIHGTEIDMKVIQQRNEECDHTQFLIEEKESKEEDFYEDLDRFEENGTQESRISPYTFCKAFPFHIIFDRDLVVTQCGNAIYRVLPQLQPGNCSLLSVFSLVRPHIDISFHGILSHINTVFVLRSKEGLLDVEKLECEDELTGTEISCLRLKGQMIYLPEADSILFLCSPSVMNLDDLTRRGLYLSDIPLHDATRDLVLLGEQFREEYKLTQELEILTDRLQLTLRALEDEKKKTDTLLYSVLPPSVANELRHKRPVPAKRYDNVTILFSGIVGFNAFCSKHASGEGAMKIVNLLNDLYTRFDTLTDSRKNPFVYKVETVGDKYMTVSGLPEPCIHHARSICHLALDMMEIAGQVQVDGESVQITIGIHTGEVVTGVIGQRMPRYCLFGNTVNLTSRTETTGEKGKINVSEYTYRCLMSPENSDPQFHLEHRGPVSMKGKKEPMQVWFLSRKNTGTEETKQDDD
T1 sequence (Q02108 whole entry): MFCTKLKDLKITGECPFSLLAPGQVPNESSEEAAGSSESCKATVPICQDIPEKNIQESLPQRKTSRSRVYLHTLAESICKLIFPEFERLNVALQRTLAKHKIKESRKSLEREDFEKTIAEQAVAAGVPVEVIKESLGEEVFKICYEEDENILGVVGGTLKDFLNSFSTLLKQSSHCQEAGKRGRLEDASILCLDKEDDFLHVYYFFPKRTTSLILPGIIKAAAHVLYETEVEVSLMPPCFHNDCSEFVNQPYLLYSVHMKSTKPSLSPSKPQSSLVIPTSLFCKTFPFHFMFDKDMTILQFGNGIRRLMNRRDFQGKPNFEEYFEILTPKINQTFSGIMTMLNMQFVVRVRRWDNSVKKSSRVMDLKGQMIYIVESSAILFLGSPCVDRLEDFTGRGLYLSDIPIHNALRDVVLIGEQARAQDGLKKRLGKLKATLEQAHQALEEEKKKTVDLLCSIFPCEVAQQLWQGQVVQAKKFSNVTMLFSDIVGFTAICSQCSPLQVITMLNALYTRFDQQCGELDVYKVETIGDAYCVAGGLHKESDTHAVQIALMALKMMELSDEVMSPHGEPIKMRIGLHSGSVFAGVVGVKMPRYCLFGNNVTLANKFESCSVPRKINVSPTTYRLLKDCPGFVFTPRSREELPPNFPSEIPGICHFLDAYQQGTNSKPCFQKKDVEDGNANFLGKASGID

SMILES: O=C(O)CCCCN(CCc1cc(F)ccc1OCc1ccc(-c2ccc(C(F)(F)F)cc2)cc1)Cc1ccc(C(=O)O)cc1 [BAY 60-2770]
effect on overactive bladder (obese mice): ameliorates overactive bladder in obese mice

SMILES: O=C(O)CCCCN(CCc1ccccc1OCc1ccc(CCc2ccccc2)cc1)Cc1ccc(C(=O)O)cc1 [BAY 58-2667]
pulmonary vasodilation [1]: dose dependent pulmonary vasodilation

SMILES: Nc1nc(-c2nn(Cc3ccccc3F)c3ncccc23)nc(N)c1N1CCOCC1 [BAY 41-8543]
pulmonary vasodilation [1]: dose dependent pulmonary vasodilation

SMILES: CN1CC(=O)N2[C@H](c3ccc4c(c3)OCO4)c3[nH]c4ccccc4c3C[C@@H]2C1=O [tadalafil]
blood flow regulation (exercise-induced attenuation of reflex vasoconstriction) (patients with BMD): normal blood flow regulation was restored in eight of nine patients

SMILES: Nc1nc(-c2nn(Cc3ccccc3F)c3ncccc23)ncc1C1CC1 [BAY 41-2272]
pulmonary vasodilation [1]: dose dependent pulmonary vasodilation

SMILES: CC(C)[N+]1(C)[C@@H]2CC[C@H]1CC(OC(=O)C(CO)c1ccccc1)C2 (stereo partly shown) [Ipratropium bromide]
IC50 [2]: 0.86 nM

Emax [3]: 80 to 100%
EC50 [3]: 1 to 100 nM
Emax [4]: 80 to 100%
EC50 [4]: 1 to 100 nM
SMILES: CC(C)[C@H](CN(C)c1nc(-c2cc(-c3ccon3)n(Cc3ccccc3F)n2)ncc1F)C(=O)O [Compound I-248]
Rat Mean Arterial Pressure peak change from baseline at 10 mpk (Sprague-Dawley rats): C (C = peak change from baseline at 10 mpk < −20)

Emax [3]: 60 to 80%
EC50 [3]: 1 to 100 nM
Emax [4]: 80 to 100%
EC50 [4]: 1 to 100 nM
SMILES: CC(C)[C@@H](CN(C)c1nc(-c2cc(-c3ccon3)n(Cc3ccccc3F)n2)ncc1F)C(=O)O [Compound I-253]
Rat Mean Arterial Pressure peak change from baseline at 10 mpk (Sprague-Dawley rats): B (B = −20 ≤ peak change from baseline at 10 mpk ≤ −10)
